Among the test systems are A549; DU-145; HCC 2998; HCT-116; HL-60; HOP-62; Hs-578T; LOX IMVI; MDA-MB-435; Malme-3M; NCI/ADR-RES; OVCAR-3; OVCAR-4; RPMI-8226; RXF 393; SK-MEL-28; SK-MEL-5; SW-620; UO-31; SF-539.
Holding throughout (experiment): NCI anticancer screen, dose series, 48 h

Each structure is given as a SMILES string.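 Interpolation was linear, between the two tested concentrations surrounding the appropriate level; five concentrations were tested over 48 hours in 96-well plates. GI50: concentration for 50% inhibition of growth.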 Calls of active or inactive are those of the source. No stated cut-off is given here; in the data, active = GI50 up to about 1.1 µM and inactive = higher.

Turning to `CCOC(=O)c1ccc(C(=O)/C(C#N)=C2\CCCN2)n1C`, the GI50 with A549 is > 100 µM (inactive); in the experiment with DU-145 it was 95.1 µM (inactive); in the experiment on HCC 2998, > 100 µM (inactive); with HCT-116, > 100 µM (inactive); in the experiment on HL-60 it was 34.2 µM (inactive); in the experiment with HOP-62, > 100 µM (inactive). The GI50 with Hs-578T was > 100 µM (inactive); with LOX IMVI it was 86.5 µM (inactive); in the experiment with MDA-MB-435 it was 31.2 µM (inactive); with Malme-3M, > 100 µM (inactive); with NCI/ADR-RES, 34.2 µM (inactive); in the experiment on OVCAR-3, 68.4 µM (inactive). The GI50 in the experiment on OVCAR-4 was > 100 µM (inactive); with RPMI-8226, 0.703 µM (active); with RXF 393 it was 25.7 µM (inactive); in the experiment with SK-MEL-28 it was > 100 µM (inactive); in the experiment on SK-MEL-5 it was 33.6 µM (inactive); in the experiment with SW-620, > 100 µM (inactive). The GI50 with UO-31 is > 100 µM (inactive).

`C/C(=N\NC(=O)/C(C#N)=C\c1ccc(N(CCC#N)CCC#N)cc1)c1ccccc1`: the GI50 in the experiment with A549, in the experiment with DU-145, in the experiment on HCC 2998, with HCT-116, in the experiment on HL-60 and with HOP-62 was > 10 µM (inactive) throughout. For the same compound, the GI50 in the experiment on Hs-578T, in the experiment with LOX IMVI, in the experiment with MDA-MB-435, in the experiment with Malme-3M, in the experiment with NCI/ADR-RES and with OVCAR-4 was > 10 µM (inactive) throughout. The GI50 in the experiment with RPMI-8226, with RXF 393, with SF-539, in the experiment on SK-MEL-28, in the experiment on SK-MEL-5 and in the experiment on SW-620 was > 10 µM (inactive) throughout. For the same compound, the GI50 with UO-31 was > 10 µM (inactive).

Take `CC(C)(O)C1CC[C@]2(C)[C@H]3CC[C@@H]4[C@@]5(C)CCCC(C)(C)[C@@H]5CC[C@@]4(C)[C@]3(C)CC[C@@H]12` (stereo partly drawn): the GI50 with A549, with DU-145, in the experiment on HCC 2998, in the experiment with HCT-116, in the experiment with HL-60 and with HOP-62 was > 100 µM (inactive) each time. Further, the GI50 in the experiment with Hs-578T, in the experiment with LOX IMVI, with MDA-MB-435, with Malme-3M, with NCI/ADR-RES and in the experiment with OVCAR-3 was > 100 µM (inactive) each time. Further, the GI50 in the experiment on OVCAR-4, in the experiment with RPMI-8226, with RXF 393, with SF-539, with SK-MEL-28 and with SK-MEL-5 was > 100 µM (inactive) each time. Besides, the GI50 in the experiment with SW-620 is > 100 µM (inactive).

With `c1ccc(NC2(c3nnnn3C3CCCCC3)CCNCC2)cc1`, the GI50 is 32.4 µM (inactive) with A549; 37 µM (inactive) with DU-145; 11.7 µM (inactive) in the experiment on HCC 2998; 15.2 µM (inactive) with HCT-116; 14.1 µM (inactive) in the experiment on HL-60; 15.9 µM (inactive) with HOP-62. The GI50 in the experiment with Hs-578T was 14.1 µM (inactive); in the experiment with LOX IMVI, 15.7 µM (inactive); in the experiment on MDA-MB-435 it was 19.4 µM (inactive); in the experiment with Malme-3M, 17.1 µM (inactive); in the experiment on NCI/ADR-RES, 66.5 µM (inactive); with OVCAR-4 it was 49.8 µM (inactive). Besides, the GI50 with RPMI-8226 was 22.9 µM (inactive); with RXF 393, > 10 µM (inactive); with SF-539 it was 15.6 µM (inactive); in the experiment with SK-MEL-28 it was 17.9 µM (inactive); in the experiment on SK-MEL-5, 19.5 µM (inactive); in the experiment on SW-620, 22.2 µM (inactive). Also, the GI50 in the experiment on UO-31 is 11.9 µM (inactive).

On to `Cn1c(-c2ccc(-c3cc(-c4cccs4)c(-c4cccs4)n3C)cc2)cc(-c2cccs2)c1-c1cccs1`, for which the GI50 with A549, in the experiment with DU-145, in the experiment on HCC 2998, with HCT-116, with HL-60 and with HOP-62 was > 100 µM (inactive) throughout. Besides, the GI50 in the experiment with Hs-578T, in the experiment with MDA-MB-435, in the experiment with NCI/ADR-RES, in the experiment on OVCAR-4, with RPMI-8226 and in the experiment on RXF 393 was > 100 µM (inactive) each time. The GI50 in the experiment on SF-539, with SK-MEL-28, in the experiment with SK-MEL-5, with SW-620 and in the experiment with UO-31 was > 100 µM (inactive) each time.

As for `N#C/C(=C\c1ccccc1)c1nc(-c2cc3ccccc3oc2=O)cs1`, the GI50 in the experiment on A549 was > 100 µM (inactive); in the experiment with DU-145 it was > 100 µM (inactive); in the experiment with HCC 2998, > 100 µM (inactive); with HCT-116, > 100 µM (inactive); in the experiment with HL-60, > 100 µM (inactive); with HOP-62, 30.9 µM (inactive). The GI50 in the experiment with Hs-578T was 48 µM (inactive); in the experiment on LOX IMVI, > 100 µM (inactive); with MDA-MB-435, > 100 µM (inactive); in the experiment with Malme-3M, > 100 µM (inactive); with NCI/ADR-RES, > 100 µM (inactive); in the experiment on OVCAR-4, 41.5 µM (inactive). For the same compound, the GI50 in the experiment on RPMI-8226 is > 100 µM (inactive); in the experiment on RXF 393, > 100 µM (inactive); with SF-539, 58.5 µM (inactive); with SK-MEL-28 it was > 100 µM (inactive); in the experiment on SK-MEL-5, > 100 µM (inactive); in the experiment with SW-620, > 100 µM (inactive). For the same compound, the GI50 in the experiment with UO-31 was 93.1 µM (inactive).

Consider `Cc1ncc([N+](=O)[O-])n1CCN(C)C(=O)CCCn1ccnc1[N+](=O)[O-]`, for which the GI50 with A549, in the experiment on DU-145, with HCT-116, in the experiment with HL-60, with HOP-62 and in the experiment on Hs-578T was > 100 µM (inactive) throughout. The GI50 in the experiment with LOX IMVI, in the experiment on MDA-MB-435, with Malme-3M, in the experiment on NCI/ADR-RES, in the experiment with OVCAR-3 and with OVCAR-4 was > 100 µM (inactive) in each case. The GI50 with RPMI-8226, in the experiment with RXF 393, in the experiment on SF-539, in the experiment on SK-MEL-28, in the experiment with SK-MEL-5 and in the experiment on SW-620 was > 100 µM (inactive) in each case. For the same compound, the GI50 with UO-31 was > 100 µM (inactive).

With `Cc1ccc(/N=C2\C(=O)C3=C(OC(C)(C)CC3)c3ccccc32)cc1`, the GI50 in the experiment on A549 is 1.83 µM (inactive); in the experiment on DU-145, 1.31 µM (inactive); in the experiment with HCC 2998 it was 1.77 µM (inactive); in the experiment on HCT-116, 0.292 µM (active); in the experiment on HL-60 it was 0.227 µM (active); in the experiment with HOP-62 it was 0.542 µM (active). Also, the GI50 in the experiment on Hs-578T was 2.82 µM (inactive); in the experiment on LOX IMVI it was 0.269 µM (active); with MDA-MB-435, 0.183 µM (active); with Malme-3M, 0.352 µM (active); in the experiment with NCI/ADR-RES, 0.318 µM (active); in the experiment with OVCAR-3 it was 0.151 µM (active). Further, the GI50 in the experiment with OVCAR-4 is 0.986 µM (active); in the experiment on RPMI-8226, 0.232 µM (active); with RXF 393, 1.71 µM (inactive); with SK-MEL-28, 1.21 µM (inactive); in the experiment with SK-MEL-5, 0.951 µM (active); with SW-620 it was 0.738 µM (active). The GI50 with UO-31 was 0.652 µM (active).

In the case of `C=CCON(C(=O)OC(C)(C)C)C(C)(C)C`, the GI50 in the experiment with A549, in the experiment with DU-145, with HCC 2998, in the experiment with HCT-116, with HL-60 and in the experiment on HOP-62 was > 100 µM (inactive) throughout. The GI50 with Hs-578T, with LOX IMVI, in the experiment on MDA-MB-435, in the experiment on Malme-3M, with NCI/ADR-RES and in the experiment with OVCAR-3 was > 100 µM (inactive) in each case. The GI50 in the experiment with OVCAR-4 was 1.55 µM (inactive); in the experiment with RPMI-8226, > 100 µM (inactive); in the experiment with RXF 393, > 100 µM (inactive); in the experiment with SK-MEL-28 it was > 100 µM (inactive); in the experiment on SK-MEL-5 it was > 100 µM (inactive); with SW-620 it was > 100 µM (inactive). The GI50 in the experiment with UO-31 is > 100 µM (inactive).

On to `O=C1OC([C@H](O)c2cccnc2)c2ccccc21` (stereo partly drawn), for which the GI50 in the experiment on A549, with DU-145, in the experiment on HCC 2998, in the experiment on HCT-116, with HL-60 and with HOP-62 was > 10 µM (inactive) each time. The GI50 with Hs-578T, in the experiment on LOX IMVI, with MDA-MB-435, in the experiment with NCI/ADR-RES, with OVCAR-3 and in the experiment with OVCAR-4 was > 10 µM (inactive) each time. Besides, the GI50 in the experiment with RPMI-8226, with RXF 393, in the experiment with SF-539, in the experiment with SK-MEL-28, in the experiment with SK-MEL-5 and in the experiment on SW-620 was > 10 µM (inactive) each time. Besides, the GI50 in the experiment on UO-31 was > 10 µM (inactive).
